Source: publication PMC1247619 (Environmental Health Perspectives, 2004)

Legend:
[1] = test system: estrogen receptors (ERs); assay: Ex vivo luciferase measurement in lysates of transgenic embryos exposed in utero; set-up: species or system mouse
Method: (§1) To obtain transgenic embryos, heterozygote transgenic males from line INS3 were mated with wild-type females (F1 from C57Bl/6J × CBA). Heterozygote males were used so that every litter would also contain wild type embryos, which could serve as an internal negative control. Females were checked daily for the presence of a vaginal plug, and when a plug was detected, that day was designated 0.5 day postcoitum (dpc).
(§2) Animal experiments were performed with approval of the Netherlands Academy of Arts and Sciences Animal Ethics Committee. The IVIS imaging experiments were done with additional approval of the Animal Ethics Committee of NV Organon.
When embryos were isolated from the amniotic membranes, we kept tails separated and stored at –20°C for subsequent DNA isolation and polymerase chain reaction for presence of the transgene, as described previously ([Legler et al. 2000]). Only transgenic embryos were used for further luciferase measurement. Subsequently, embryos were thawed on ice and lysis buffer [1% (vol/vol) Triton X-100, 2.5 × 10^−2 M glycylglycine, 1.5 × 10^−2 M MgSO4, 4 × 10^−3 M EGTA, and 1 × 10^−3 M dithiothreitol (DTT)] was added. Next, samples were sonicated, the lysate centrifuged, and the supernatant collected. […] Luciferase activity was corrected for protein content as measured with the Bradford assay.
(§3) We considered one litter as a statistical unit rather than one embryo because we assumed that all embryos in one litter were subject to the same variation of the compound injection and placental transfer. Therefore, the average ± SEM per litter was calculated, and these were then averaged to express the luciferase activity per group. All data were log-transformed and tested for normality with the Shapiro-Wilks test using SPSS 12.0 (SPSS, Chicago, IL, USA).

[2] = test system: estrogen receptors (ERs); assay: In vivo (in utero) luciferase measurement with IVIS imaging in transgenic ERE-luciferase embryos; set-up: species or system mouse; settings: 10,000 μg/kg, 8 hr after exposure
Method: as §1, §2, §3

[3] = target: T1, human ER-α (hER-α) (Homo sapiens, UniProt P03372); assay: In vitro estrogenic activity assay, stable HEK cell line with hER-α and ERE-luciferase reporter; format: cell-based
T1 construct: expressed in transfected cells
T1 sequence (P03372 1-595): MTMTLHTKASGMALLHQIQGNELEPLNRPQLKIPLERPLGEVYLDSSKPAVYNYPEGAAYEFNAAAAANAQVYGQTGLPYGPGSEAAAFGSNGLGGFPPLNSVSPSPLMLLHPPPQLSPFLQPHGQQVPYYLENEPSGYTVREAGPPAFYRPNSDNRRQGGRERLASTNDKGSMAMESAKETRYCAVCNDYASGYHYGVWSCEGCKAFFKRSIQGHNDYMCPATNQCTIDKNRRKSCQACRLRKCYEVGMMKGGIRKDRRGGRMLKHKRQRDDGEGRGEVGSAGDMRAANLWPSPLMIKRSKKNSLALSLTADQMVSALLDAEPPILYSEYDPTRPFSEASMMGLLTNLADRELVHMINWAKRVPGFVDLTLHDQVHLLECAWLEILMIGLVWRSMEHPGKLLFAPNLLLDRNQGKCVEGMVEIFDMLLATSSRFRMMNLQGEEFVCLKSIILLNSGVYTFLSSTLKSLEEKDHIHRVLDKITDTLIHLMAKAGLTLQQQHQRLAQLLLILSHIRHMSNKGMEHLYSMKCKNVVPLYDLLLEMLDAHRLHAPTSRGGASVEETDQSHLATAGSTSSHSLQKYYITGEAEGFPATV
Method: (§4) Briefly, cells were plated in 96-well tissue culture plates (NUNC, Life Technologies, Breda, The Netherlands) in medium consisting of phenol red–free Dulbecco’s modified Eagle’s medium/F12 (1:1) medium containing 3 × 10^−8 M selenite, 10 μg/mL transferrin, 0.2% (wt/vol) bovine serum albumin, and 5% (wt/vol) dextran-coated charcoal-stripped fetal calf serum. […] Luciferase activity of 25 μL cell lysate was measured with the Luclite Luciferase Reporter gene assay kit (Perkin-Elmer, Brussels, Belgium) according to the manufacturer’s instructions using 25 μL Luclite solution on a Topcount liquid scintillation counter (Perkin-Elmer).
(§5) The in vitro dose–response activation curves obtained with the stable cell lines were fitted using the sigmoidal fit {y = a0 + a1/1 + exp[–(x – a2)/a3]} in Slidewrite Plus for Windows (version 3.0; BIS, Ridderkerk, The Netherlands), which determines the fitting coefficients by an iterative process minimizing the c2 merit function (least squares criterion). […] The cell line data shown are the average of at least two independent experiments with each experimental point performed in triplicate. Data are shown as a percentage of maximal induction by E2.

[4] = test system: uterine wet weight; settings: cited from earlier work
[5] = target: T2, hER-β (Homo sapiens, UniProt Q92731); assay: In vitro estrogenic activity assay, stable HEK cell line with hER-β and ERE-luciferase reporter; format: cell-based
T2 construct: expressed in transfected cells
Method: as §4, §5

[6] = test system: ER; set-up: method as in Nagel et al. (2001); settings: 1 mg/kg; ref Nagel et al. (2001); cited from earlier work
[7] = pregnant mice, 100 mg/kg subcutaneously; ref Domoradzki et al. 2003; Shin et al. 2002; Uchida et al. 2002; cited from earlier work
[8] = test system: human and mouse ER-α; set-up: method as in Matthews et al. 2000; settings: ref Matthews et al. 2000; cited from earlier work
[9] = set-up: method as in Takahashi and Oishi 2000; settings: pregnant rats; ref Takahashi and Oishi 2000; cited from earlier work
[10] = set-up: method as in McLachlan 1977; settings: 14C-DES injected in pregnant mice; ref McLachlan 1977; cited from earlier work
[11] = test system: estrogen receptors (ERs); settings: adult transgenic animals; ref Lemmen et al. 2004; cited from earlier work

T2 sequence (Q92731 whole entry): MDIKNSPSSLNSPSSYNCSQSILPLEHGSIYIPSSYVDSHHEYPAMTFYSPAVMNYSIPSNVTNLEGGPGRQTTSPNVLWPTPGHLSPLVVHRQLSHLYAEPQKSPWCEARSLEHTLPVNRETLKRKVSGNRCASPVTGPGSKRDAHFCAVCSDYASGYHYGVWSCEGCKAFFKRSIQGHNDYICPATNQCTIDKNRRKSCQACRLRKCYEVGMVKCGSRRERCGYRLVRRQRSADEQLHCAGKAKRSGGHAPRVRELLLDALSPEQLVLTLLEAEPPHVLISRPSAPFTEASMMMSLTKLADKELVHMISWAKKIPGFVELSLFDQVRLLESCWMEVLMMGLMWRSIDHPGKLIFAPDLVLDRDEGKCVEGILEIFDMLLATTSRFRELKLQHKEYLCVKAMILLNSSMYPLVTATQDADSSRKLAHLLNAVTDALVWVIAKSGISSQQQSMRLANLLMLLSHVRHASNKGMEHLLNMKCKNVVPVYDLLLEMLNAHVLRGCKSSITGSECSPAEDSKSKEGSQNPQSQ

Row | SMILES | luciferase activity versus oil-exposed controls, embryo lysates ([1]; 1,000 μg/kg, 8 hr after exposure) | luciferase activity versus oil-exposed controls, embryo lysates ([1]; 10,000 μg/kg, 8 hr after exposure) | dose at which in utero luciferase activation was significant from oil-exposed controls ([1]; 8 hr after exposure) [mg/kg] | luciferase activity versus oil-exposed animals, embryo lysates ([1]; 24 hr after exposure, BPA 10–10,000 μg/kg (Figure 2)) | luciferase activity versus oil-exposed animals, IVIS [2] | times less active than DES in activating ER-α [3] | uterine wet weight response ([4]; 1 mg/kg, ref Nagel et al. (2001)) | uterotrophic response ([4]; CD-1 mice, 100 mg/kg, ref Markey et al. 2001) | activity in the uterine wet weight assay ([4]; CFLP mice, 0.5 mg/mouse (~ 16.7 mg/kg), ref Coldham et al. 1997) | toxicity in the uterine wet weight assay ([4]; mouse, in vivo, 167 mg/kg) | times less active than DES toward ER-β transactivation [5] | ER transcriptional activity in the adult uterus [6] | time after exposure at which detected in fetal sera, liver, brain, uterus and testes [7] [min] | affinity of human versus mouse ER-α [8] | time of peak concentration in fetal circulation [9] [min] | time of peak fetal plasma levels [10] [h] | time of peak luciferase activity after exposure [11] [h]
1 | CC(C)(c1ccc(O)cc1)c1ccc(O)cc1 [BPA, bisphenol A] | significantly higher | significantly higher | 1 | no difference | not statistically significant | 5,000 times | did not induce | induced | inactive | toxic | 1,400 times | significant increase | 30 | same affinity | 15 to 20 |  | 
2 | CC/C(=C(/CC)c1ccc(O)cc1)c1ccc(O)cc1 [DES, diethylstilbestrol, reference compound] |  |  |  |  |  |  |  |  |  |  |  |  |  | same affinity |  | 2 | 
3 | C[C@]12CC[C@@H]3c4ccc(O)cc4CC[C@H]3[C@@H]1CC[C@@H]2O [E2, 17β-estradiol] |  |  |  |  |  |  |  |  |  |  |  |  |  |  |  |  | 8
